Target: T1, Corticotropin-releasing factor receptor 1 (Homo sapiens, UniProt P34998)
T1 sequence (P34998 whole entry): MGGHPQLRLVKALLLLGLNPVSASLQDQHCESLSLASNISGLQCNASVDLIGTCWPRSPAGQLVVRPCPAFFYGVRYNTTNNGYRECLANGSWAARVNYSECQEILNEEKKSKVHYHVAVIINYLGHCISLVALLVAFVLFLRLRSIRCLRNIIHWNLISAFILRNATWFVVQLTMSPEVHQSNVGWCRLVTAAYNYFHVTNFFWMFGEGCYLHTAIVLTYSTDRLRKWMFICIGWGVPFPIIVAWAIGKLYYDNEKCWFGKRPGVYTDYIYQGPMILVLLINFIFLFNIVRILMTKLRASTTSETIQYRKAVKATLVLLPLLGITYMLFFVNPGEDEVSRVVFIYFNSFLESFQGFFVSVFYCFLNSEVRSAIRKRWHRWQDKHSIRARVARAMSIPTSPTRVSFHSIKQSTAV
Test: Inhibition of [125I]CRF binding to human corticotropin releasing factor receptor 1

Ki	Structure (SMILES)
> 10 µM	CCCN(CC1CC1)c1nc(C)nc(Nc2ccc(C)cc2)n1
> 10 µM	CCCN(Cc1ccccc1)c1nc(C)nc(Nc2c(C)cccc2C)n1
8 µM	CCCN(CC1CC1)c1nc(C)nc(Nc2ccc(OC)cc2OC)n1
> 10 µM	CCN(Cc1ccccc1)c1nc(C)nc(Nc2c(C)cccc2C)n1
> 10 µM	CCCN(CC1CC1)c1nc(C)nc(Nc2c(C)cccc2C)n1
> 10 µM	CCCN(Cc1ccccc1)c1nc(C)nc(Nc2c(CC)cccc2CC)n1
1.7 µM	CCc1cccc(CC)c1Nc1nc(C)nc(N(CC)Cc2ccccc2)n1
> 10 µM	Cc1ccc(Nc2nc(C)nc(NCc3ccc(C(F)(F)F)cc3)n2)cc1
> 10 µM	CCCN(Cc1ccccc1)c1nc(C)nc(Nc2ccc(C)cc2)n1
> 10 µM	C=CCN(CC=C)c1nc(C)nc(Nc2ccc(C)cc2)n1
> 10 µM	Cc1nc(NCc2ccc(C(F)(F)F)cc2)nc(Nc2c(C)cccc2C)n1
1.05 µM	CCCCN(Cc1ccccc1)c1nc(C)nc(Nc2c(C)cc(C)cc2C)n1
0.49 µM	CCCN(Cc1ccccc1)c1nc(C)nc(Nc2c(C)cc(C)cc2C)n1
1.47 µM	CCN(Cc1ccccc1)c1nc(C)nc(Nc2c(C)cc(C)cc2C)n1
0.13 µM	CCCN(CCC)c1nc(C)nc(Nc2c(C)cc(C)cc2C)n1
> 10 µM	CCCN(CC1CC1)c1nc(C)nc(Nc2ccc(C)cc2C)n1
55 µM	CCc1cccc(CC)c1Nc1nc(C)nc(NCc2ccc(C(F)(F)F)cc2)n1
> 10 µM	C=CCN(CC=C)c1nc(C)nc(Nc2c(C)cccc2C)n1
> 10 µM	CCCN(CC1CC1)c1nc(C)nc(Nc2c(CC)cccc2CC)n1
> 10 µM	CCN(Cc1ccccc1)c1nc(C)nc(Nc2ccc(C)cc2)n1
0.49 µM	CCCCN(CCCC)c1nc(C)nc(Nc2c(C)cc(C)cc2C)n1
0.115 µM	C=CCN(CC=C)c1nc(C)nc(Nc2c(C)cc(C)cc2C)n1
> 10 µM	CCCN(CC1CC1)c1nc(CC)nc(Nc2c(C)cc(C)cc2C)n1

— ChEMBL document CHEMBL1129026, “Rapid microscale synthesis, a new method for lead optimization using robotics and solution phase chemistry: application to the synthesis and optimization of corticotropin-releasing factor1 receptor antagonists” (J Med Chem, 1996)
